In US12378571B2, “Use of glyphosate for disease suppression and yield enhancement in soybean” (Monsanto Technology LLC, priority 2009, dated 2025):

Legend:
[1] = system: Brown Stem Rot (Phialaphora gregata); assay: Field trials, Brown Stem Rot, glyphosate (Example 4, Table 1); type: in vivo, soybean
Procedure: (§1) Greenhouse studies were performed to determine the effect of glyphosate timing and rate of application in preventing or suppressing the development of BSR in soybean plants. […] Field trials were also performed. Asgrow cv. 2107 soybean plants were planted and maintained weed free with pre-emergence herbicides at recommended rates, followed by hand weeding as necessary.

[2] = system: Phakopsora pachyrhizi EPSPS expressed in Escherichia coli strain lacking native EPSPS; assay: Zone of growth inhibition, filter paper disk on plate seeded with E. coli expressing fungal EPSPS; type: cell-based
Procedure: Glyphosate Mode of Action Against Plant Pathogenic Fungi A gene encoding EPSPS was cloned from a representative phytopathogenic fungus, in this case, from Phakopsora pachyrhizi, the causal agent of Asian Soybean Rust (“ASR”), and expressed in an Escherichia coli strain lacking the native bacterial E. coli EPSPS. Thus, EPSPS activity in the recombinant bacterial strain was due to the presence of the fungal EPSPS. Glyphosate was added to a filter paper disk and placed on a culture plate seeded with the recombinant E. coli cells, allowing for detection of a zone of growth inhibition of bacterial cells.

[3] = system: Brown Stem Rot (Phialaphora gregata); assay: Greenhouse studies, Brown Stem Rot, glyphosate timing and rate; type: in vivo, soybean; conditions: application 4 days before infection, about 0.84-2.5 kg ae/ha
Procedure: as §1

[4] = Mobilization of glyphosate in planta after foliar application; type: in vivo
Source text: Mobilization of glyphosate in planta was studied to determine the potential to impact on activity against plant diseases. About 1 day after foliar application of glyphosate about 70% of the applied glyphosate may be found on the leaf surface, where it may directly contact fungal spores or infective structures, inhibiting their growth, and killing them. About 21% of the glyphosate was found localized within the foliage where it can act to inhibit infection locally. About 9% of the applied glyphosate was transported out of the treated leaf and detected systemically (e.g. in stems and roots) at the time of testing (e.g. Feng et al. 2005). The transported fraction of applied glyphosate increases to about 40% over time, further increasing systemic fungicidal activity.

Diaporthe phaseolorum = assay: Greenhouse studies, Stem Canker of soybean, glyphosate after inoculation; type: in vivo; conditions: 0.84-2.52 kg ae/ha following inoculation
Procedure: Stem Canker of soybean (STC) is caused by Diaporthe phaseolorum. Greenhouse studies were performed to determine the efficacy of timing of glyphosate application (e.g. 0.84-2.52 kg ae/ha) following inoculation with the pathogen.

[5] = system: Brown Stem Rot of soybean; assay: Field studies, Brown Stem Rot: Roundup WeatherMAX, picoxystrobin, tank mix (Rup 1X = 0.84 kg ae/ha; picoxystrobin 0.125 kg ai/ha); type: in vivo; conditions: for BSR Foliar Symptoms (0-11 HB scale): picoxystrobin 1X at R2; for Calculated Values (% of control) Foliar Symptoms: treatment 9 (picoxystrobin 1X at R2)
[6] = about 1 day after foliar application

SMILES | suppression of BSR, as measured by foliar symptom severity ([1]; glyphosate applied at V3- R2 growth stages) | yield relative to untreated controls ([1]; treated soybean test plots) | zone of inhibition ([2]; 5 mg of glyphosate on filter paper disk) | zone of growth inhibition ([2]; 20 mg of glyphosate on filter paper disk) | foliar incidence of BSR [3] | applied glyphosate found on the leaf surface [4, 6] | glyphosate localized within the foliage [4, 6] | applied glyphosate transported out of the treated leaf and detected systemically (stems and roots) ([4]; at the time of testing, about 1 day after foliar application) | transported fraction of applied glyphosate ([4]; over time) | prophylaxis of Soybean Stem Canker (Diaporthe phaseolorum) | BSR Foliar Symptoms (0-11 HB scale) ([5]; 7-Sep) | Calculated Values (% of control) Foliar Symptoms ([5]; 7-Sep) | BSR Foliar Symptoms (0-11 HB scale) ([5]; 14-Sep) | Calculated Values (% of control) Foliar Symptoms ([5]; 14-Sep) | BSR Foliar Symptoms (0-11 HB scale) ([5]; 31-Aug) | Calculated Values (% of control) Foliar Symptoms ([5]; 31-Aug)
O=C(O)CNCP(=O)(O)O [glyphosate, N-phosphonomethylglycine] | suppression of BSR (reduced stem rot severity) | Increased yield | about 24 mm | about 38 mm | reduced the level of foliar incidence of the disease | about 70% | About 21% | About 9% | about 40% | Prophylactic results, even 7 or more days post-inoculation, were seen |  |  |  |  |  | 
CO/C=C(/C(=O)OC)c1ccccc1COc1cccc(C(F)(F)F)n1 [picoxystrobin] |  |  |  |  |  |  |  |  |  |  | 3.6 0-11 HB scale | 72.0 % of control | 6.8 0-11 HB scale | 113.3 % of control | 3.0 0-11 HB scale | 93.8 % of control
